pIC50: −log10 of the molar value. Where “and” joins values, the source holds several entries; their conditions need not be identical. Equal entries are not always repeated.
What was measured:
[1] = RSV human challenge study: safety (adverse events, clinical and laboratory tests, ECG); type: in vivo; conditions: for TEAE Abdominal discomfort / TEAE Abdominal distention / TEAE Abdominal pain (Table 4) / TEAE Abdominal pain (Table S4, listed apart from Abdominal pain lower) / TEAE Abdominal pain lower / TEAE Blood and lymphatic system disorders / TEAE Cardiac disorders / TEAE Catheter site erythema / TEAE Catheter site paraesthesia / TEAE Decreased appetite / TEAE Diarrhea / TEAE Dizziness / TEAE Epistaxis / TEAE Eye disorders / TEAE Eye pain / TEAE Food poisoning / TEAE Gastroenteritis / TEAE Gastrointestinal disorders / TEAE General disorders and administration site conditions / TEAE Headache / TEAE Hypoaesthesia / TEAE Infections and infestations / TEAE Injury, poisoning and procedural complications / TEAE Joint injury / TEAE Lip dry / TEAE Lymphadenopathy / TEAE Metabolism and nutrition disorders / TEAE Musculoskeletal and connective tissue disorders / TEAE Musculoskeletal pain / TEAE Myalgia / TEAE Myocarditis / TEAE Nausea / TEAE Nervous system disorders / TEAE Ocular hyperemia / TEAE Oropharyngeal pain / TEAE Pain in jaw / TEAE Pyrexia / TEAE Rash / TEAE Respiratory, thoracic and mediastinal disorders / TEAE Rhinitis / TEAE Skin abrasion / TEAE Skin and subcutaneous tissue disorders / TEAE Tension headache / TEAE Total / TEAE URTI / TEAE Vessel puncture site erythema / TEAE Viral URTI / TEAE Vomiting: safety analysis set
Text: Twice-daily collection of nasal wash samples allowed measurement of viral load via RT-qPCR and quantitative culture. RT-qPCR results were reported as PFUe/ml when the standard curve included in each assay contained a known infectious amount (PFU) of RSV, as described previously ([30]). Subjects reported the occurrence and severity of symptoms three times daily using a 10-item subject symptom diary card as previously reported ([12]) (see Supplemental Methods). Throughout the quarantine period, used tissues were collected and weighed daily, and total nasal mucus weight was recorded. PK assessments were based on venous blood samples. Safety assessments included measurement of vital signs, standard 12-lead ECG recordings, spirometry, a complete physical examination, and a respiratory-directed physical examination. AEs were monitored daily, coded according to the Medical Dictionary for Regulatory Activities Version 20.0, and graded according to the National Cancer Institute Common Terminology Criteria for Adverse Events Version 4.0 (see Supplemental Methods for further details).
The primary efficacy analysis population (the ITT-I analysis set) comprised all randomized subjects who received challenge virus and at least one dose of study drug and met the criterion for laboratory-confirmed RSV infection (presence of detectable RSV). Sensitivity analyses were based on a subset of the ITT-I population who had first detectable RSV infection prior to study drug administration (the ITT-A analysis set) and a fixed time period of 6.5 days (comprising data for all subjects for 6.5 days of evaluation after the first dose, regardless of the staggered commencement of dosing). The safety analysis set comprised all subjects who received challenge virus; the PK analysis set comprised all subjects who received the challenge virus and provided at least one postdose PK result. […]
unexpected, in the opinion of the investigator, were captured as AEs. Following the viral challenge, upper and lower respiratory tract symptoms identified by the directed physical examination were expected, presumed to represent virus infection consequent to viral challenge and not captured as an AE unless they met the criteria for an AE and were deemed clinically significant in the opinion of the investigator. AEs were monitored daily from screening (day –2) through to the follow -up visit (day 28) and coded to system organ class and preferred term according to the Medical Dictionary for Regulatory Activities Version
20.0. AEs were graded according to the National Cancer Institute Common Terminology Criteria for Adverse Events Version 4.0, andthe relationship to the investigational medical product or to challenge virus was recorded. An AE with an onset date/time after […]
that were considered by the investigator to be causally related to challenge virus can be included in the analysis of AEs.
Outcomes. Safety outcomes included the occurrence of AEs. PK outcomes included the maximum plasma concentration, the minimum plasma concentration, the time to maximum plasma concentration, and the area under the plasma concentration-time curve with a dosing interval, calculated by the linear trapezoidal rule.

RSV-A clinical isolates = system: RSV-A clinical isolates; set-up: method as in ref 16 = [16]; 16. Cockerill GS , Bedernjak A , Brookes D , Dowey R , Harland R , Johnson SM , Mathews N , Paradowski M , Peeples M , Scott C , Steadman M , Taylor G , Thom M , Thomas E , Ward SE , Watterson D , You; conditions: n = 20 isolates; cited from earlier work
[2] = preclinical evaluations, including juvenile toxicology studies; cited from earlier work

SMILES: NCc1ccc2c(c1)nc(CN1C(=O)C3(CC3)c3ccc(F)cc31)n2CCCC(F)(F)F [RV521]
- Grade 2 TEAEs, number of events ([1]; 200 mg): 2
- Subjects with gastrointestinal TEAEs ([1]; 200 mg): 32%
- Subjects with grade 2 TEAEs ([1]; 200 mg): 2 subjects
- Treatment-emergent AEs, number of events ([1]; 200 mg): 19
- Clinical or laboratory tests (vital signs, liver enzymes) vs placebo ([1]; 200 mg and 350 mg): No notable differences
- ECG findings ([1]; 200 mg and 350 mg): no clinically significant ECG findings
- TEAEs of grade ≥3 ([1]; 200 mg and 350 mg): no TEAEs of grade ≥3
- TEAE Abdominal discomfort ([1]; 200 mg): 0 number of subjects (%)
- TEAE Abdominal distention ([1]; 200 mg): 0 number of subjects (%)
- TEAE Abdominal pain (Table 4) ([1]; 200 mg): 2 (9) No. of subjects (%)
- TEAE Abdominal pain (Table S4, listed apart from Abdominal pain lower) ([1]; 200 mg): 2 (9) number of subjects (%)
- TEAE Abdominal pain lower ([1]; 200 mg): 0 number of subjects (%)
- TEAE Blood and lymphatic system disorders ([1]; 200 mg): 0 number of subjects (%)
- TEAE Cardiac disorders ([1]; 200 mg): 0 number of subjects (%)
- TEAE Catheter site erythema ([1]; 200 mg): 0 number of subjects (%)
- TEAE Catheter site paraesthesia ([1]; 200 mg): 1 (5) number of subjects (%)
- TEAE Decreased appetite ([1]; 200 mg): 1 (5) number of subjects (%)
- TEAE Diarrhea ([1]; 200 mg): 3 (14) No. of subjects (%)
- TEAE Dizziness ([1]; 200 mg): 1 (5) number of subjects (%)
- TEAE Epistaxis ([1]; 200 mg): 1 (5) number of subjects (%)
- TEAE Eye disorders ([1]; 200 mg): 0 number of subjects (%)
- TEAE Eye pain ([1]; 200 mg): 0 number of subjects (%)
- TEAE Food poisoning ([1]; 200 mg): 1 (5) number of subjects (%)
- TEAE Gastroenteritis ([1]; 200 mg): 0 number of subjects (%)
- TEAE Gastrointestinal disorders ([1]; 200 mg): 7 (32) number of subjects (%)
- TEAE General disorders and administration site conditions ([1]; 200 mg): 1 (5) number of subjects (%)
- TEAE Headache ([1]; 200 mg): 0 No. of subjects (%)
- TEAE Hypoaesthesia ([1]; 200 mg): 1 (5) number of subjects (%)
- TEAE Infections and infestations ([1]; 200 mg): 3 (14) number of subjects (%)
- TEAE Injury, poisoning and procedural complications ([1]; 200 mg): 1 (5) number of subjects (%)
- TEAE Joint injury ([1]; 200 mg): 0 number of subjects (%)
- TEAE Lip dry ([1]; 200 mg): 0 number of subjects (%)
- TEAE Lymphadenopathy ([1]; 200 mg): 0 number of subjects (%)
- TEAE Metabolism and nutrition disorders ([1]; 200 mg): 1 (5) number of subjects (%)
- TEAE Musculoskeletal and connective tissue disorders ([1]; 200 mg): 0 number of subjects (%)
- TEAE Musculoskeletal pain ([1]; 200 mg): 0 number of subjects (%)
- TEAE Myalgia ([1]; 200 mg): 0 number of subjects (%)
- TEAE Myocarditis ([1]; 200 mg): 0 number of subjects (%)
- TEAE Nausea ([1]; 200 mg): 2 (9) No. of subjects (%)
- TEAE Nervous system disorders ([1]; 200 mg): 2 (9) number of subjects (%)
- TEAE Ocular hyperemia ([1]; 200 mg): 0 number of subjects (%)
- TEAE Oropharyngeal pain ([1]; 200 mg): 0 number of subjects (%)
- TEAE Pain in jaw ([1]; 200 mg): 0 number of subjects (%)
- TEAE Pyrexia ([1]; 200 mg): 0 number of subjects (%)
- TEAE Rash ([1]; 200 mg): 0 No. of subjects (%)
- TEAE Respiratory, thoracic and mediastinal disorders ([1]; 200 mg): 1 (5) number of subjects (%)
- TEAE Rhinitis ([1]; 200 mg): 1 (5) No. of subjects (%)
- TEAE Skin abrasion ([1]; 200 mg): 1 (5) number of subjects (%)
- TEAE Skin and subcutaneous tissue disorders ([1]; 200 mg): 1 (5) number of subjects (%)
- TEAE Tension headache ([1]; 200 mg): 0 number of subjects (%)
- TEAE Total ([1]; 200 mg): 11 (50) number of subjects (%) and 11 number of subjects (%)
- TEAE URTI ([1]; 200 mg): 2 (9) No. of subjects (%)
- TEAE Vessel puncture site erythema ([1]; 200 mg): 0 number of subjects (%)
- TEAE Viral URTI ([1]; 200 mg): 0 No. of subjects (%)
- TEAE Vomiting ([1]; 200 mg): 1 (5) No. of subjects (%)
- Grade 2 TEAEs, number of events ([1]; 350 mg): 4
- Subjects with gastrointestinal TEAEs ([1]; 350 mg): 59%
- Subjects with grade 2 TEAEs ([1]; 350 mg): 3 subjects
- TEAE Abdominal discomfort ([1]; 350 mg): 1 (5) number of subjects (%)
- TEAE Abdominal distention ([1]; 350 mg): 1 (5) number of subjects (%)
- TEAE Abdominal pain (Table 4) ([1]; 350 mg): 5 (23) No. of subjects (%)
- TEAE Abdominal pain (Table S4, listed apart from Abdominal pain lower) ([1]; 350 mg): 4 (18) number of subjects (%)
- TEAE Abdominal pain lower ([1]; 350 mg): 1 (5) number of subjects (%)
- TEAE Blood and lymphatic system disorders ([1]; 350 mg): 0 number of subjects (%)
- TEAE Cardiac disorders ([1]; 350 mg): 0 number of subjects (%)
- TEAE Catheter site erythema ([1]; 350 mg): 1 (5) number of subjects (%)
- TEAE Catheter site paraesthesia ([1]; 350 mg): 0 number of subjects (%)
- TEAE Decreased appetite ([1]; 350 mg): 0 number of subjects (%)
- TEAE Diarrhea ([1]; 350 mg): 9 (41) No. of subjects (%)
- TEAE Dizziness ([1]; 350 mg): 1 (5) number of subjects (%)
- TEAE Epistaxis ([1]; 350 mg): 0 number of subjects (%)
- TEAE Eye disorders ([1]; 350 mg): 0 number of subjects (%)
- TEAE Eye pain ([1]; 350 mg): 0 number of subjects (%)
- TEAE Food poisoning ([1]; 350 mg): 0 number of subjects (%)
- TEAE Gastroenteritis ([1]; 350 mg): 1 (5) number of subjects (%)
- TEAE Gastrointestinal disorders ([1]; 350 mg): 13 (59) number of subjects (%)
- TEAE General disorders and administration site conditions ([1]; 350 mg): 1 (5) number of subjects (%)
- TEAE Headache ([1]; 350 mg): 0 No. of subjects (%)
- TEAE Hypoaesthesia ([1]; 350 mg): 0 number of subjects (%)
- TEAE Infections and infestations ([1]; 350 mg): 5 (23) number of subjects (%)
- TEAE Injury, poisoning and procedural complications ([1]; 350 mg): 0 number of subjects (%)
- TEAE Joint injury ([1]; 350 mg): 0 number of subjects (%)
- TEAE Lip dry ([1]; 350 mg): 1 (5) number of subjects (%)
- TEAE Lymphadenopathy ([1]; 350 mg): 0 number of subjects (%)
- TEAE Metabolism and nutrition disorders ([1]; 350 mg): 0 number of subjects (%)
- TEAE Musculoskeletal and connective tissue disorders ([1]; 350 mg): 1 (5) number of subjects (%)
- TEAE Musculoskeletal pain ([1]; 350 mg): 0 number of subjects (%)
- TEAE Myalgia ([1]; 350 mg): 1 (5) number of subjects (%)
- TEAE Myocarditis ([1]; 350 mg): 0 number of subjects (%)
- TEAE Nausea ([1]; 350 mg): 12 (55) No. of subjects (%)
- TEAE Nervous system disorders ([1]; 350 mg): 1 (5) number of subjects (%)
- TEAE Ocular hyperemia ([1]; 350 mg): 0 number of subjects (%)
- TEAE Oropharyngeal pain ([1]; 350 mg): 0 number of subjects (%)
- TEAE Pain in jaw ([1]; 350 mg): 0 number of subjects (%)
- TEAE Pyrexia ([1]; 350 mg): 0 number of subjects (%)
- TEAE Rash ([1]; 350 mg): 0 No. of subjects (%)
- TEAE Respiratory, thoracic and mediastinal disorders ([1]; 350 mg): 0 number of subjects (%)
- TEAE Rhinitis ([1]; 350 mg): 2 (9) No. of subjects (%)
- TEAE Skin abrasion ([1]; 350 mg): 0 number of subjects (%)
- TEAE Skin and subcutaneous tissue disorders ([1]; 350 mg): 1 (5) number of subjects (%)
- TEAE Tension headache ([1]; 350 mg): 0 number of subjects (%)
- TEAE Total ([1]; 350 mg): 16 (73) number of subjects (%)
- TEAE URTI ([1]; 350 mg): 0 No. of subjects (%)
- TEAE Vessel puncture site erythema ([1]; 350 mg): 0 number of subjects (%)
- TEAE Viral URTI ([1]; 350 mg): 2 (9) No. of subjects (%)
- TEAE Vomiting ([1]; 350 mg): 2 (9) No. of subjects (%)
- Treatment-related SAEs, deaths, or discontinuations due to AEs ([1]; any treatment group): No treatment-related serious adverse events (SAEs), deaths, or discontinuations due to AEs
- pIC50 (RSV-A clinical isolates): 8.85
- Safety profile [2]: good safety profile

From article PMC6985722 (Antimicrobial Agents and Chemotherapy, 2020)
